The values below come from patent US20090023700A1, “NEUROPROTECTIVE TREATMENTS” (University of Louisville Research Foundation, priority 2007, published 2009).

One series has as its system rat cardiomyocytes. As to conditions: cited from earlier work.
Series [1] concerns Madin-Darby canine kidney cells. As to conditions: H2O2-susceptible Madin-Darby canine kidney cells; cited from earlier work.
The test system of the next series is PTPs. As to conditions: cited from earlier work.
Series [2] relates to human aortic endothelial cells. The experiment in a line: Apoptosis of serum-deprived cultured endothelial cells. Type of series: cell-based. As to conditions: for apoptotic endothelial cells: 3 μM. How it is done: To determine whether bpV(phen) can directly promote survival of endothelial cells, it was tested on cultured human aortic endothelial cells deprived of serum. […] With 3 μM bpV(phen), only ˜1.3% were apoptotic in both the 0 and 5% serum groups (FIG. 9A). Eighteen hours after plating under control conditions, between 5 and 13% of endothelial cells were apoptotic, whereas treatment with 3 μM bpV(phen) reduced apoptosis to ˜2-3% (FIG. 9B).
Endothelial cell cultures. Human aortic endothelial cells (Lonza Walkersville) were plated at 5×10^4 cells per well in 24 well polystyrene plates and incubated with different concentrations of bpV(phen) for 6 or 18 h at 37° C. in DMEM/Ham's F-12 (BioWhittaker) plus EGM-2 growth factor supplements [EGM-2 SingleQuots (Lonza Walkersville) containing hydrocortisone, human epidermal growth factor, FBS, vascular endothelial growth factor, human basic fibroblast growth factor, R3-IGF-1, ascorbic acid, heparin, and gentamicin/amphotericin-B] and 10-20% fetal calf serum. […] Afterward, the endothelial cells were fixed in 4% paraformaldehyde for 2 h, the nuclei were stained with 2.5 μg/ml DNA dye Hoechst 33258 (bis-benzimide; Sigma) in PBS containing 0.1% Triton X-100 for 30 min, and the cells were covered with Fluoromount-G (Southern Biotechnology) to reduce fluorescence-induced fading (Invitrogen).
Quantitative measurements and statistics. The extent of sensory innervation of the gracile nucleus was determined by measuring the CTB-labeled terminal fiber area in every third section as described previously (Baker et al. (2007) Exp Neurol 205:82-91). In short, images of every third section through the right and left gracile nuclei were analyzed using the density slice feature of the Scion Image software. […] Images of EC-stained sections were captured, and the positive areas were measured with Scion Image. […] The number of spared myelinated axons at C3 was counted in semithin sections using a 63× oil objective in 15.7×15.7 μm grids placed over the middle part of each fasciculus gracilis (see FIG. 4D-4F). […]

For a further series, the system named is C6 cells. As to conditions: cited from earlier work.

On to `O.O.O.OO.OO.[K+].[OH-].[V].c1cnc2c(c1)ccc1cccnc12` [bpV(phen), potassium bisperoxo(1,10-phenanthroline)oxovanadate (V)], for which, in the series with rat cardiomyocytes, the glutathione concentration result is “does not change”. In addition, the cell death result in series [1] is reported as “does not cause death”. The “inhibition of PTPs” value in the series with PTPs was “inhibits”. The endothelial apoptosis result in series [2] (1 μM, 18 h, 0, 1.25, 2.5 and 5% serum) is “only reduces endothelial apoptosis in the 2.5 and 5% serum groups”. The apoptotic endothelial cells in series [2] (6 h after plating, 0 and 5% serum groups, control 2-3%) is on record as about 1.3%; in series [2] (18 h after plating, serum deprived, control 5-13%) it was 2-3%. The “oxidative damage to DNA” value with C6 cells is “does not cause oxidative damage to DNA”.
